Measured values as given in PubChem BioAssay AID1845195 (Molecular Pharmacology Branch, DTP, NCI, 2023).

Test system: 156681-154-R-J1 tumor spheroid viability
Experiment: Anticancer human tumor 156681-154-R-J1 patient-derived melanoma cell line growth inhibition
Conditions: spheroids with HUVEC and MSC; for IC50: curve of first compound; for viability, T/C: stronger effect = lower value
In short: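 Complex tumor spheroids combined malignant cells with endothelial cells and mesenchymal stem cells. DNA-damaging drugs and DNA repair inhibitors were tested alone and in combination, at half-log dilutions down from clinical Cmax (top 10 microM if Cmax unknown), 0.25% DMSO final.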

[1] = second compound 1 µM, first compound 0.0316 µM
[2] = second compound 1 µM, first compound 0.1 µM
[3] = second compound 1 µM, first compound 0.316 µM
[4] = second compound 1 µM, first compound 1 µM
[5] = second compound 1 µM, first compound 3.16 µM
[6] = second compound 1 µM, first compound 10 µM
[7] = second compound 3.16 µM, first compound 0.0316 µM
[8] = second compound 3.16 µM, first compound 0.1 µM
[9] = second compound 3.16 µM, first compound 0.316 µM
[10] = second compound 3.16 µM, first compound 1 µM
[11] = second compound 3.16 µM, first compound 3.16 µM
[12] = second compound 3.16 µM, first compound 10 µM
[13] = second compound 10 µM, first compound 0.0316 µM
[14] = second compound 10 µM, first compound 0.1 µM
[15] = second compound 10 µM, first compound 0.316 µM
[16] = second compound 10 µM, first compound 1 µM
[17] = second compound 10 µM, first compound 3.16 µM
[18] = second compound 10 µM, first compound 10 µM
[19] = second compound 31.6 µM, first compound 0.0316 µM
[20] = second compound 31.6 µM, first compound 0.1 µM
[21] = second compound 31.6 µM, first compound 0.316 µM
[22] = second compound 31.6 µM, first compound 1 µM
[23] = second compound 31.6 µM, first compound 3.16 µM
[24] = second compound 31.6 µM, first compound 10 µM
[25] = second compound 100 µM, first compound 0.0316 µM
[26] = second compound 100 µM, first compound 0.1 µM
[27] = second compound 100 µM, first compound 0.316 µM
[28] = second compound 100 µM, first compound 1 µM
[29] = second compound 100 µM, first compound 3.16 µM
[30] = second compound 100 µM, first compound 10 µM
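Also: spheroids exposed to compounds for 7 days before readout.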
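For viability, T/C in this document: percent of vehicle control viability where 100% = DMSO-treated spheroids.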

CC(C)n1c(=O)n(C)c2cnc3cc(F)c(-c4ccc(OCCCN5CCCCC5)nc4)cc3c21 + Cn1nnc2c(C(N)=O)ncn2c1=O was tested, and the IC50 (second compound 1 µM) was greater than 10 µM, the IC50 (second compound 3.16 µM) was greater than 10 µM and the IC50 (second compound 10 µM) was greater than 10 µM. The IC50 (second compound 31.6 µM) was less than 0.0316 µM, the IC50 (second compound 100 µM) was less than 0.0316 µM and the viability, T/C [1] was 116%. It also gave a viability, T/C [2] of 122%, a viability, T/C [3] of 110% and a viability, T/C [4] of 104%. The viability, T/C [5] was 108%, the viability, T/C [6] was 95.1% and the viability, T/C [7] was 85.2%. The viability, T/C [8] was 83%, the viability, T/C [9] was 111% and the viability, T/C [10] was 123%. It also gave a viability, T/C [11] of 98.9%, a viability, T/C [12] of 71.4% and a viability, T/C [13] of 78.5%. The viability, T/C [14] was 63.5%, the viability, T/C [15] was 70.8% and the viability, T/C [16] was 72.4%. The viability, T/C [17] was 75.5%, the viability, T/C [18] was 64.1% and the viability, T/C [19] was 47.2%. It also gave a viability, T/C [20] of 54.5%, a viability, T/C [21] of 53% and a viability, T/C [22] of 48.3%. For the same molecule, the viability, T/C [23] was 52%, the viability, T/C [24] was 55.8% and the viability, T/C [25] was 51.9%. It also gave a viability, T/C [26] of 43.3%, a viability, T/C [27] of 46.8% and a viability, T/C [28] of 48.2%. It also gave a viability, T/C [29] of 49.5% and a viability, T/C [30] of 43.4%.

For COc1ccc([C@@H](O)c2cc(-c3ncnc4cc(N5CCOCC5)ccc34)c(F)cc2Cl)nn1 + Cn1nnc2c(C(N)=O)ncn2c1=O, the IC50 (second compound 1 µM) was greater than 10 µM, the IC50 (second compound 3.16 µM) was greater than 10 µM and the IC50 (second compound 10 µM) was 7.33 µM. For the same molecule, the IC50 (second compound 31.6 µM) was greater than 10 µM, the IC50 (second compound 100 µM) was greater than 10 µM and the viability, T/C [1] was 104%. For the same molecule, the viability, T/C [2] was 98.4%, the viability, T/C [3] was 86% and the viability, T/C [4] was 70.5%. For the same molecule, the viability, T/C [5] was 72.2%, the viability, T/C [6] was 53.3% and the viability, T/C [7] was 101%. The viability, T/C [8] was 111%, the viability, T/C [9] was 77.7% and the viability, T/C [10] was 79.1%. For the same molecule, the viability, T/C [11] was 62%, the viability, T/C [12] was 54.8% and the viability, T/C [13] was 71.5%. It also gave a viability, T/C [14] of 85.4%, a viability, T/C [15] of 73.8% and a viability, T/C [16] of 66.2%. The viability, T/C [17] was 70.7%, the viability, T/C [18] was 42.9% and the viability, T/C [19] was 60%. It also gave a viability, T/C [20] of 67.3%, a viability, T/C [21] of 71.8% and a viability, T/C [22] of 47.2%. It also gave a viability, T/C [23] of 77.4%, a viability, T/C [24] of 45.2% and a viability, T/C [25] of 55%. For the same molecule, the viability, T/C [26] was 55.7%, the viability, T/C [27] was 48.1% and the viability, T/C [28] was 64.4%. It also gave a viability, T/C [29] of 54.7% and a viability, T/C [30] of 48.4%.
